Source: PubChem BioAssay AID1963841 (Molecular Pharmacology Branch, DTP, NCI, 2024)

Test system: 439559-082-T-J2-PDC spheroid viability
Assay: Anticancer human tumor 439559-082-T-J2-PDC patient-derived colon adenocarcinoma cell line growth inhibition [POLQ]
Settings: spheroids with HUVEC and MSC; for IC50: curve of first compound; for viability, T/C: stronger effect = lower value
Summary of the method: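 PDC + HUVEC + MSC complex spheroids; POLQ inhibitors ± partner drugs; top conc. at/near clinical Cmax, else 10 microM (SN-38 1 microM), half-log dilutions; 37 degrees C, 5% CO2.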

[1] = second compound 0.0316 µM, first compound 0.0316 µM
[2] = second compound 0.0316 µM, first compound 0.1 µM
[3] = second compound 0.0316 µM, first compound 0.316 µM
[4] = second compound 0.0316 µM, first compound 1 µM
[5] = second compound 0.1 µM, first compound 0.0316 µM
[6] = second compound 0.1 µM, first compound 0.1 µM
[7] = second compound 0.1 µM, first compound 0.316 µM
[8] = second compound 0.1 µM, first compound 1 µM
[9] = second compound 0.316 µM, first compound 0.0316 µM
[10] = second compound 0.316 µM, first compound 0.1 µM
[11] = second compound 0.316 µM, first compound 0.316 µM
[12] = second compound 0.316 µM, first compound 1 µM
[13] = second compound 1 µM, first compound 0.0316 µM
[14] = second compound 1 µM, first compound 0.1 µM
[15] = second compound 1 µM, first compound 0.316 µM
[16] = second compound 1 µM, first compound 1 µM
[17] = second compound 3.16 µM, first compound 0.0316 µM
[18] = second compound 3.16 µM, first compound 0.1 µM
[19] = second compound 3.16 µM, first compound 0.316 µM
[20] = second compound 3.16 µM, first compound 1 µM
[21] = second compound 10 µM, first compound 0.0316 µM
[22] = second compound 10 µM, first compound 0.1 µM
[23] = second compound 10 µM, first compound 0.316 µM
[24] = second compound 10 µM, first compound 1 µM
[25] = second compound 0.0316 µM, first compound 0.00316 µM
[26] = second compound 0.0316 µM, first compound 0.01 µM
[27] = second compound 0.1 µM, first compound 0.00316 µM
[28] = second compound 0.1 µM, first compound 0.01 µM
[29] = second compound 0.316 µM, first compound 0.00316 µM
[30] = second compound 0.316 µM, first compound 0.01 µM
[31] = second compound 1 µM, first compound 0.00316 µM
[32] = second compound 1 µM, first compound 0.01 µM
[33] = second compound 3.16 µM, first compound 0.00316 µM
[34] = second compound 3.16 µM, first compound 0.01 µM
[35] = second compound 10 µM, first compound 0.00316 µM
[36] = second compound 10 µM, first compound 0.01 µM
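Note: spheroids exposed to compounds for seven days before readout.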
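Throughout, for viability, T/C: 100% = DMSO vehicle control viability.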

With COc1ccc([C@@H](O)c2cc(-c3ncnc4cc(N5CCOCC5)ccc34)c(F)cc2Cl)nn1 + COC1C(OC(N)=O)C(O)C(Oc2ccc3c(O)c(NC(=O)c4ccc(O)c(CC=C(C)C)c4)c(=O)oc3c2C)OC1(C)C the IC50 (second compound 0.0316 µM) was > 10 µM, the IC50 (second compound 0.1 µM) was > 10 µM and the IC50 (second compound 0.316 µM) was > 10 µM. For the same compound, the IC50 (second compound 1 µM) was > 10 µM, the IC50 (second compound 3.16 µM) was > 10 µM and the IC50 (second compound 10 µM) was > 10 µM. The viability, T/C [1] was 101%, the viability, T/C [2] was 96.5% and the viability, T/C [3] was 99.1%. For the same compound, the viability, T/C [4] was 95.1%, the viability, T/C (second compound 0.0316 µM, first compound 3.16 µM) was 90.7% and the viability, T/C (second compound 0.0316 µM, first compound 10 µM) was 77.3%. For the same compound, the viability, T/C [5] was 109%, the viability, T/C [6] was 96.4% and the viability, T/C [7] was 93.5%. It also gave a viability, T/C [8] of 95.1%, a viability, T/C (second compound 0.1 µM, first compound 3.16 µM) of 83.3% and a viability, T/C (second compound 0.1 µM, first compound 10 µM) of 71.7%. For the same compound, the viability, T/C [9] was 107%, the viability, T/C [10] was 101% and the viability, T/C [11] was 92.6%. It also gave a viability, T/C [12] of 91.2%, a viability, T/C (second compound 0.316 µM, first compound 3.16 µM) of 89.9% and a viability, T/C (second compound 0.316 µM, first compound 10 µM) of 74.3%. For the same compound, the viability, T/C [13] was 100%, the viability, T/C [14] was 94% and the viability, T/C [15] was 92.9%. It also gave a viability, T/C [16] of 87.9%, a viability, T/C (second compound 1 µM, first compound 3.16 µM) of 86.5% and a viability, T/C (second compound 1 µM, first compound 10 µM) of 70.9%. The viability, T/C [17] was 96.6%, the viability, T/C [18] was 91.8% and the viability, T/C [19] was 97.7%. For the same compound, the viability, T/C [20] was 92%, the viability, T/C (second compound 3.16 µM, first compound 3.16 µM) was 82.3% and the viability, T/C (second compound 3.16 µM, first compound 10 µM) was 79.5%. It also gave a viability, T/C [21] of 102%, a viability, T/C [22] of 99.9% and a viability, T/C [23] of 86.5%. It also gave a viability, T/C [24] of 86.4%, a viability, T/C (second compound 10 µM, first compound 3.16 µM) of 78% and a viability, T/C (second compound 10 µM, first compound 10 µM) of 76.5%.
Work on COc1cccc(OCCCN)c1-c1cc(Nc2cnc(C#N)cn2)n[nH]1 + Cc1cccc(N(C)C(=O)C2C(O)CCN2c2nc(C)cc(C(F)(F)F)c2C#N)c1 yielded an IC50 (second compound 0.0316 µM) of 0.274 µM, an IC50 (second compound 0.1 µM) of 0.319 µM and an IC50 (second compound 0.316 µM) of 0.299 µM. It also gave an IC50 (second compound 1 µM) of 0.398 µM, an IC50 (second compound 3.16 µM) of 0.291 µM and an IC50 (second compound 10 µM) of 0.15 µM. The viability, T/C [25] was 99.3%, the viability, T/C [26] was 99.7% and the viability, T/C [1] was 71%. The viability, T/C [2] was 77.9%, the viability, T/C [3] was 44.8% and the viability, T/C [4] was 18.5%. For the same compound, the viability, T/C [27] was 100%, the viability, T/C [28] was 74.7% and the viability, T/C [5] was 71.1%. For the same compound, the viability, T/C [6] was 78.1%, the viability, T/C [7] was 49.5% and the viability, T/C [8] was 19.9%. For the same compound, the viability, T/C [29] was 104%, the viability, T/C [30] was 83.8% and the viability, T/C [9] was 84.8%. For the same compound, the viability, T/C [10] was 68.7%, the viability, T/C [11] was 51% and the viability, T/C [12] was 19.8%. The viability, T/C [31] was 110%, the viability, T/C [32] was 94.2% and the viability, T/C [13] was 82.5%. It also gave a viability, T/C [14] of 77.5%, a viability, T/C [15] of 64.2% and a viability, T/C [16] of 20.9%. It also gave a viability, T/C [33] of 87.6%, a viability, T/C [34] of 102% and a viability, T/C [17] of 81.7%. It also gave a viability, T/C [18] of 74.9%, a viability, T/C [19] of 48.1% and a viability, T/C [20] of 19.4%. The viability, T/C [35] was 101%, the viability, T/C [36] was 86.9% and the viability, T/C [21] was 94.5%. For the same compound, the viability, T/C [22] was 63.2%, the viability, T/C [23] was 25.1% and the viability, T/C [24] was 16.2%.
CC[C@@]1(O)C(=O)OCc2c1cc1n(c2=O)Cc2cc3c(CN(C)C)c(O)ccc3nc2-1 + Nc1ccc(C#CCN(C(=O)Cc2ncc(C(F)(F)F)cc2C(F)(F)F)c2ccc(F)cc2)nn1 was tested, and the IC50 (second compound 0.0316 µM) was > 0.1 µM, the IC50 (second compound 0.1 µM) was > 0.1 µM and the IC50 (second compound 0.316 µM) was > 0.1 µM. For the same compound, the IC50 (second compound 1 µM) was > 0.1 µM, the IC50 (second compound 3.16 µM) was > 0.1 µM and the IC50 (second compound 10 µM) was > 0.1 µM. For the same compound, the viability, T/C (second compound 0.0316 µM, first compound 0.000316 µM) was 104%, the viability, T/C (second compound 0.0316 µM, first compound 0.001 µM) was 97% and the viability, T/C [25] was 81.4%. It also gave a viability, T/C [26] of 108%, a viability, T/C [1] of 85.8% and a viability, T/C [2] of 82.8%. For the same compound, the viability, T/C (second compound 0.1 µM, first compound 0.000316 µM) was 107%, the viability, T/C (second compound 0.1 µM, first compound 0.001 µM) was 103% and the viability, T/C [27] was 96.3%. The viability, T/C [28] was 105%, the viability, T/C [5] was 85.9% and the viability, T/C [6] was 76.3%. The viability, T/C (second compound 0.316 µM, first compound 0.000316 µM) was 108%, the viability, T/C (second compound 0.316 µM, first compound 0.001 µM) was 110% and the viability, T/C [29] was 101%. The viability, T/C [30] was 104%, the viability, T/C [9] was 93.6% and the viability, T/C [10] was 79%. For the same compound, the viability, T/C (second compound 1 µM, first compound 0.000316 µM) was 86.7%, the viability, T/C (second compound 1 µM, first compound 0.001 µM) was 98.6% and the viability, T/C [31] was 83.8%. It also gave a viability, T/C [32] of 97.9%, a viability, T/C [13] of 88.7% and a viability, T/C [14] of 75.4%. The viability, T/C (second compound 3.16 µM, first compound 0.000316 µM) was 114%, the viability, T/C (second compound 3.16 µM, first compound 0.001 µM) was 113% and the viability, T/C [33] was 92%. For the same compound, the viability, T/C [34] was 88.4%, the viability, T/C [17] was 88% and the viability, T/C [18] was 89.9%. The viability, T/C (second compound 10 µM, first compound 0.000316 µM) was 91.8%, the viability, T/C (second compound 10 µM, first compound 0.001 µM) was 94.8% and the viability, T/C [35] was 87.9%. For the same compound, the viability, T/C [36] was 90.2%, the viability, T/C [21] was 86% and the viability, T/C [22] was 75.9%.
